Columns and labels:
[1] = Absorption spectrum of PS1 and common photosensitizers in DMSO; assay type: physicochemical
Experimental: (§1) The absorption maximum of all of the substances was measured in DMSO.
The absorption spectrum of the synthesized PS1 was measured. […] In addition, absorption spectra were measured at different concentrations, and the absorption at a wavelength of 775 nm was then plotted to obtain a molar adsorption coefficient. As a result, the molar adsorption coefficient was 41000 (M^−1 cm^−1) (FIG. 2).

[2] = Singlet oxygen quantum yield (DPBF, light irradiation); assay type: physicochemical
Experimental: as §1
The singlet oxygen quantum yield of PS1 was measured. […] This value was higher than the values of conventional photosensitizers, and thus, the usefulness of PS1 for photo dynamic therapy could be expected.

[3] = test system: EGFR-overexpressing A431 cells; experiment: Immunotoxin plus photochemical internalization (PCI), cell viability (CCK-8); assay type: cell-based; details: A431, immunotoxin + PCI with the named photosensitizer + NIR
Experimental: After that, a new medium was added, and irradiation (6.1 mW/cm^2 for 60 min, 22 J/cm^2) with a near infrared light (700 to 1100 nm) was then carried out. Forty-eight hours after the irradiation, CCK-8 was added to the resultant, and the absorption at a wavelength of 450 nm was then measured using a plate reader, so that cell viability was measured (FIG. 8).
Using these photosensitizers, a cell experiment involving the combined use of addition of the immunotoxin and PCI was carried out.

[4] = protoporphyrin IX generated as a result of metabolizing 5-ALA in the cytoplasm; cited from earlier work

Row | Structure (SMILES) | absorption maximum (region) [1] | singlet oxygen quantum yield ([2]; in DMSO) | photosensitization ability under near infrared light irradiation (reason given for no viability reduction) [3] | absorption maximum (λab) [4] | singlet oxygen quantum yield ([2]; in a buffer aqueous solution (pH 7.4))
1 | [Zn+2].c1ccc2c(c1)-c1nc-2nc2[n-]c(nc3nc([n-]c4nc(n1)-c1ccccc1-4)-c1ccccc1-3)c1ccccc21 [Zinc phthalocyanine] | in a visible light region | high | photosensitization could not be performed | – | –
2 | NCC(=O)CCC(=O)O [5-ALA, 5-aminolevulinic acid] | – | – | – | 405 nm | –
3 | CC1(C)C(/C=C/C=C/C=C/C=C2\N(CCCCS(=O)(=O)O)c3ccc4ccccc4c3C2(C)C)=[N+](CCCCS(=O)(=O)[O-])c2ccc3ccccc3c21 [Indocyanine green] | in a near infrared region | – | could not release a sufficient amount of singlet oxygen | – | 0.12

Reference: patent US12600734B2, “Photosensitizing dye” (The University of Tokyo, priority 2020, dated 2026)
